Results on 6 compounds are retold here after US4618677A, “Substituted phenylalkyl-(piperazinyl or homopiperazinyl)alkyl-thiols and -thiocarbamates useful for the treatment of immunological, inflammatory, and allergic disorders” (Boehringer Ingelheim Limited, priority 1984, dated 1986).

Where “and” joins values, the source holds several entries; their conditions need not be identical. Equal entries are not always repeated. Structures can show the parent of a compound that is named as a salt. Where two headings read alike, the source gives them in different places.

In assay [1] the test system is rat peritoneal mast cells. The assay is described as follows: Inhibition of histamine release from rat peritoneal mast cells, Procedure B. In kind it is cell-based. Particulars: Mast cell, 1 h, read-out: In Vitro Inhibition of Histamine Release IC50 (μM) Procedure B.
Description: B. Procedure for Determining Inhibition of Histamine Release from Rat Peritoneal Mast Cells
Harvest of Peritoneal Mast Cells: After the rats are sacrificed with ether, 20 ml of Minimum Essential Medium (MEM) containing 20 units/ml heparin is injected into the peritoneum. The abdomen is massaged for one minute and the lavage fluid collected. The peritoneal cells are centrifuged at 1800 rpm for 8 minutes in cold. After two washes with Tris A buffer, the cells are resuspended in Tris ACM buffer at 2-4×10^6 cells/ml.
Reaction mixture: The reaction is carried out in 12×75 mm plastic tubes at a total volume of 1.25 ml. The reaction mixture includes 0.5 ml (10-1000 μg) sheep anti-rat IgE or ovalbumin, 0.2 ml of the test compound in water at concentrations ranging from 10-1000 μM, 0.5 ml phosphatidylserine solution (20-60 μg to each tube), and 0.5 ml of cell suspension.
The concentration which causes a 50% inhibition (IC50) of histamine release is computed as in Part A.
Assay [2] concerns guinea pig basophils. In words: Inhibition of histamine release from guinea pig basophils, Procedure C. In kind it is cell-based. Particulars: Cavia porcellus, 1 h, read-out: In Vitro Inhibition of Histamine Release IC50 (μM) Procedure C. The protocol:
C. Procedure for Determining Inhibition of Histamine Release from Guinea Pig Basophils
1. In Vivo Sensitization: Male Hartley guinea pigs (200-300 gm) are immunized on day 0 with two 0.05 ml intradermal injections of 200 μg ovalbumin. Sensitized basophils are available between days 13-25 post-sensitization. This mode of sensitization favors IgE response.
2. Separation of Leukocytes: The method of Lett-Brown et al., Int. Arch. Allergy, Appl. Immun. 64, 241 (1981) is used. Animals are anesthetized with ether and are bled via cardiac puncture, with plastic syringes containing sufficient EDTA to provide a final concentration of 10 mM.
One part of 3% gelatin in saline at 37° C. is mixed with 2 parts of blood in a 16×150 mm tube. The cells are allowed to sediment at a 30° angle for 45 minutes in a 37° C. water bath. The leukocyte-rich plasma is collected and centrifuged at 150×g for 30 minutes at room temperature. The pelleted cells are washed in Hepes-buffered saline (HG) containing 4 mM EDTA and resuspended in Hepes-buffered saline containing […] and Ca^++ (HGCM) at 4-5×10^6 cells/ml.
3. Reaction Mixture: The reaction is carried out in 12×75 mm plastic tubes and a total volume of 1.2 ml which includes 0.5 ml of antigen, 0.2 ml of drug solution at concentrations ranging from 10-1000 μM and 0.5 ml of prewashed cell suspension. The reaction mixture is incubated in a 37° C. shaking water bath for 60 minutes. Upon completion of the reaction, the tubes are centrifuged and the supernatants collected. The protein is removed from the supernatants by precipitation with 0.2 ml of 8% perchloric acid.
4. Histamine Assay: Histamine release is measured by the automated fluorometric method of Siraganian, supra. The concentration which causes a 50 percent inhibition of histamine release is computed as in Part A.

The test system of assay [3] is human leukocytes (basophils). In words: Inhibition of IgE-mediated histamine release from human leukocytes (basophils), Procedure A. In kind it is cell-based. Particulars: Leukocyte, 1 h, read-out: In Vitro Inhibition of Histamine Release IC50 (μM) Procedure A.
Description: A. Procedure for Determining Inhibition of Histamine Release from Human Leukocytes (Basophils)
Separation of Leukocytes: A modification of the method of L. Lichtenstein and A. Osler, J. Exp. Med. 120, 507 (1964) is used. Heparinized human blood (80-100 ml) is mixed with 20 ml of saline (0.2%) containing 0.6 gm of dextrose and 1.2 gm of dextran in propylene centrifuge tubes. The mixture is kept at ambient temperature for 60-90 minutes to allow the separation of erythrocytes from the platelet-leukocyte-rich supernate. The supernate is removed and centrifuged for 8 minutes at 110 ×g in cold. The leukocyte pellet is washed twice with Tris buffer and finally suspended in 150-180 ml Tris-ACM buffer at 1-2 ×10^6 cells/ml.
Reaction Mixture: The reaction is carried out in 12×75 mm plastic tubes at a total volume of 1.23 ml. The reaction medium includes 0.05 ml rabbit anti-human IgE (the antigen), 0.2 ml of the test compound in water at concentrations ranging from 10-100 μM, and 1.0 ml of the leukocyte suspension. The reaction mixture is incubated in a 37° C. shaking water bath for 60 minutes. Upon completion of the reaction, the tubes are centrifuged and the supernatants collected. The protein is removed from the supernatants by precipitation with 0.2 ml of 8% perchloric acid.
Histamine Assay: Histamine release is measured by the automated fluorometric method of W. Siraganian and W. Hook in Chapter 102 of the Manual of Clinical Immunology, 2nd Edition, edited by R. Rose and H. Friedman, published by the American Society for Microbiology, Washington, D.C., 1980. Percent inhibition is calculated as follows: [formula]
The concentration which causes a 50 percent inhibition (IC50) of histamine release is interpolated from a plot of percent inhibition versus logarithm of drug concentration.
Assay [4] has as its target T1, histamine (H1) receptor (Cavia porcellus, UniProt P31389).
T1 construct: contraction of isolated guinea pig ileum; from tissue; host or cells: isolated guinea pig ileum
The assay is described as follows: Antagonism of histamine-induced contraction of isolated guinea pig ileum. Particulars: histamine final concentration 0.2 μg/ml, 50% reduction of contractile response, read-out: Inhibition IC50 (μM) of histamine-induced contraction. In kind it is tissue-based. The source says: Certain compounds of formula I inhibit in vitro the histamine-induced contraction of isolated guinea pig ileum and are useful in warm-blooded animals for antagonizing the action of histamine at the histamine (H1) receptor. Accordingly, these compounds can be employed in a conventional manner as antihistamine agents for the treatment of allergic disorders, for example allergic rhinitis, vasomotor rhinitis, allergic conjunctivitis, hay fever, urticaria, and food allergies.
The antagonism of the effects of histamine on the contraction of isolated guinea pig ileum by the compounds of formula I can be determined by the procedure of G. Possanza, A. Bauen, and P. Stewart, Int. Arch. Allergy Appl. Immunol., 49, 289 (1975). The degree of inhibition is determined as the difference between the contraction caused by histamine (final concentration 0.2 μg/ml) alone and that seen in the presence of both histamine and the test compound. The inhibitory activity of the test compound is expressed as that concentration of the compound which causes a 50% reduction of the contractile response (IC50).

The mark [5] stands for this setting: from rat peritoneal mast cells, sheep anti-rat IgE or ovalbumin, 60 min at 37° C.
[6] abbreviates: from guinea pig basophils (ovalbumin-sensitized), 60 min at 37° C., > = no response detected at highest dose indicated.
Setting [7] is: from human basophils, rabbit anti-human IgE as antigen, 60 min at 37° C., > = no response detected at highest dose indicated.

T1 sequence (P31389 whole entry): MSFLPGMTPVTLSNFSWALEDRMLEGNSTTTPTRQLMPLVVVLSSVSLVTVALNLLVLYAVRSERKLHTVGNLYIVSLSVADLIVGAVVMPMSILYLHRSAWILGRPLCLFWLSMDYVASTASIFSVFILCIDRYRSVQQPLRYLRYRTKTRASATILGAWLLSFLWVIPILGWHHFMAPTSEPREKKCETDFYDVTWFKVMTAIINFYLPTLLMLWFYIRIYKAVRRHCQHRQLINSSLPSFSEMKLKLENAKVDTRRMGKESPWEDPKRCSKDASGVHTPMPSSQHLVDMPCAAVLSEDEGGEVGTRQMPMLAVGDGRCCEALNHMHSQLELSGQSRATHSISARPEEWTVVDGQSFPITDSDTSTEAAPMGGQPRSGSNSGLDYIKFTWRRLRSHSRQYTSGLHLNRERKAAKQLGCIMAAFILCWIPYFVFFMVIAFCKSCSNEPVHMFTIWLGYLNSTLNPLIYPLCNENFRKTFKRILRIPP

As to `O=C(Nc1ccccc1)SCCCN1CCN(Cc2ccc(Cl)cc2)CC1` [Example 7, N-Phenyl-S-{3-[4-(4-chlorobenzyl)piperazin-1-yl]propyl}thiocarbamate dihydrochloride], the IC50 (usually the concentration that inhibits the measured activity by half) in assay [1] (setting [5]) was determined as 3 µM; in assay [2] (setting [6]), 13 µM; in assay [3] (setting [7]), 2.6 µM.
For the compound `O=C(NC1CCCCC1)SCCCN1CCN(Cc2ccc(Cl)cc2)CC1` [Example 6, N-Cyclohexyl-S-{3-[4-(4-chlorobenzyl)piperazin-1-yl]propyl}thiocarbamate dihydrochloride], the concentration for half-maximal inhibition (IC50) in assay [1] (setting [5]) was 3 µM; in assay [4], 0.06 µM; in assay [2] (setting [6]), 20 µM; in assay [3] (setting [7]), 5 µM.
For `SCCCN1CCN(CCc2ccc(Cl)cc2)CC1` [Example 25, 3-[4-(4-Chlorophenethyl)piperazin-1-yl]propanethiol dihydrochloride], the half-maximal inhibitory concentration (IC50) in assay [1] (setting [5]) is 4 µM; in assay [2] (setting [6]), 5 µM; in assay [3] (setting [7]), 5 µM.
`COc1ccc(NC(=O)SCCCN2CCN(CCc3ccc(Cl)cc3)CC2)cc1` [Example 28, N-(4-Methoxyphenyl)-S-{3-[4-(4-chlorophenethyl)piperazin-1-yl]propyl}thiocarbamate dihydrochloride]: the IC50 is 7 µM in assay [1] (setting [5]); 0.12 µM and 0.09 µM in assay [4]; 40 µM in assay [2] (setting [6]); 5 µM in assay [3] (setting [7]).
`SCCN1CCN(Cc2ccc(Cl)cc2)CC1` [Example 36, 2-[4-(4-Chlorobenzyl)piperazin-1-yl]ethanethiol dihydrochloride]: the IC50 in assay [1] (Rattus norvegicus) is 5 µM; in assay [2], more than 100 µM; in assay [3] (Homo sapiens), 3 µM.
With `CCCCc1ccc(NC(=O)SCCCN2CCN(CCCc3ccc(Cl)cc3)CC2)cc1` [Example 33, N-(4-n-Butylphenyl)-S-{3-[4-[3-(4-chlorophenyl)propyl]piperazin-1-yl]propyl}thiocarbamate dihydrochloride], the values for the IC50 in assay [1] (setting [5]), in assay [2] (setting [6]) and in assay [3] (setting [7]) were 2 µM, 14 µM and 5 µM, respectively.
